Test results taken from patent US7135305B2, “Methods for controlling the lysis of coagulated blood with apolipoprotein e4 phenotype” (priority 2000, dated 2006).

Columns and labels:
[1] = tested on: t-PA stimulated clot lysis in fresh human blood; assay: in vitro clot lysis measured by the amount of liquid liberated from the blood sample (Example 1); conditions: FIG. 2; individual B's blood; t-PA alone 0.5 mg/l blood; N=3
Source text: There are various methods for determining the function, action and or kinetics of t-PA. These include but are not limited to: measuring fibrin degradation fragments, clot lysis, clot weight, fluid evolution weight, clot times and others. Those experienced in the art will be familiar with these and other methods for assaying t-PA activity or clot degradation/formation etc. The data from this study consists of a measurement of clot dissolution or lysis by measuring the amount of liquid liberated from the blood sample. This is an index of clot lysis and the clot lysis is stimulated by t-PA.
Typically, two mls of fresh human blood are drawn and added to pre-weighed vials containing known amounts of t-PA with or without Apo E4. The blood is mixed and allowed to equilibrate for 40 minutes. The vials are centrifuged at 1 g for 15 minutes and the supernatant decanted. Clot weight and solution weight is determined and used to measure clot degradation or dissolution. Increasing supernatant volumes indicate increased clot degradation or increasing clot dissolution.

t-PA induced clot lysis = assay: in vitro clot assay system, t-PA induced clot lysis with supplemental Apo E isoproteins (Example 3); design: species or system human; conditions: FIG. 4; t-PA 0 to 4 μg/ml, alone or with supplemental Apo E 9.8 μg/ml; blood of 18 volunteers
Procedure: The ability of Apo E isoproteins to modulate t-PA induced clot lysis is assessed using an in vitro clot assay system. This system uses the decrease in clot formation in the presence of t-PA to approximate the amount of clot lysis. Blood samples are obtained from 18 volunteers and divided into three Apo E genotypes (6 patients in each group): E2 (E2/E2, E2/E3, E2/E4), E3 (E3/E3) and E4 (E3/E4, E4/E4). Clot lysis in the presence of varying concentrations of t-PA (0 to 4 μg/ml), is assessed in the presence or absence of supplemental Apo E2, E3 or E4 (9.8 μg/ml) for each patient genotype. The results are expressed as EC50s, which are the effective concentrations of t-PA required to achieve 50% lysis of the clot.

t-PA: tissue plasminogen activator, clot lysis agent
level of clot lysis [1]: 2.5 g | EC50, effective concentration of t-PA required to achieve 50% lysis of the clot (t-PA induced clot lysis): 0.72 ± 0.19 µg/mL
